These results are taken from patent US20240103006A1 (Roche Diagnostics Operations, Inc., priority 2021, published 2024).

SMILES strings stand for the structures. In brackets after ≈: the same amount, converted by molar mass. Marks after values point to notes of the source that are not given here.

Series [1] can be described thus: UV-vis spectral properties / extinction coefficients in aqueous buffer. The following applies: probe before addition of Cys. In kind it is physicochemical. On the procedure:
Absorption spectra were recorded on a Cary 50 UV-vis spectrometer from Varian. All measurements were performed in 1 cm UV-vis disposable cuvettes (BRAND semi-micro) and air-equilibrated solutions at 25±0.1° C. A total assay volume of 1.0 mL was used for each measurement. UV-vis scan spectra were recorded using following parameters: average time 0.05 s; data interval 1 nm; scan rate 1200 nm/min; with base line correction.
(§1) Stock solutions of assayed compounds (2-5 mM) were prepared in H2O-DMSO (1:1), stored at −20° C., and diluted to 1.0 mM with buffer before use. The L-Cys stock solution (20.0 mM) was freshly prepared in buffer before the measurements. […]
For a measurement, 1000 μL of buffer and 1-50 μL of probe (1.0 mM) were mixed, and then transferred to a cuvette. Absorbance spectra (250-800 nm) were measured against a blank of the buffer. At least six concentrations of each compound were used to calculate extinction coefficients from the slope of probe concentration vs absorbance plots, using MS Excel software (Microsoft).

The nature of series [2]: Cys-response screening by UV-vis (cleavage of acryloyl ester by excess Cys). The following applies: for ε^Cys / λ^Cys: after excess Cys (100 μM), 37° C., 15 min; for SNR: from ε^Cys and ε^blank. How it is done: as §1
In the same manner, ε^Cys was determined from the solutions of probe reacted with an excess of Cys (100 μM). The reactions were performed at 37° C. (incubation time 15 min). Blank reactions were run without addition of Cys.
Spectra recorded in the presence of Cys confirmed a colorimetric response through the cleavage of acryloyl ester. […] Moreover, their spectral profiles were advantageously fulfilling the wavelength requirement for the Cys sensing application in Cedex system (340, 378, 409, 480, 512, 520, 552, 583, 629, 652, 659 and 800 nm).

Series [3] is described as follows: Evaluation of stability (hydrolysis of probe in buffer, UV-vis). The class given is physicochemical. The conditions noted are these: 25 mM HEPES pH 7.4, 15.6 μM, 5 h, ε from merocyanine analogues (LZ07: ε from Table 2). How it is done:
For a measurement, 1000 μL of buffer and 16 μL of probe (1.0 mM) were mixed, and then incubated at +4° C. and at +37° C. for 5 h. The resulting mixtures were transferred to a cuvette, and the absorbance (250-800 nm) was measured. Each measurement was done in triplicate.
[…] Solutions of each probe were monitored by UV-vis for 5 h.

A short description of series [4]: Evaluation of solubility in water. The class given is physicochemical. The following applies: for Solubility (by weight) / Solubility (by UV-vis): H2O at RT; for Solubility (by weight): calculated from isolated pellet weight; for Solubility (by UV-vis): supernatant read in 25 mM HEPES pH 7.4. How it is done: In the experiments, 5-10 mg of dried material was suspended in 250-500 μL of H2O at RT. The resulting suspension was centrifuged for 10 min at RT (16000 rcf). UV-vis of supernatant were recorded in buffer (25 mM HEPES pH 7.4) at RT. Each measurement was done in triplicate. The pellet was dried in vacuo for 16 h, and then weighed.
The aqueous solubility of probes is another important property for the performance of compounds in biological assays. The inventors determined the solubility in water of the probes according to the invention using UV-vis. First, oversaturated mixtures of each probe were prepared. The mixtures were centrifuged, and then the concentrations in probes of supernatant were examined by UV-vis. To further validate the results, the concentrations were calculated from the isolated pellet weight.

Series [5] is described as follows: Probe performance in Cedex Bio HT: Cys sensing in a feed medium. On the procedure: The rapid kinetic profile, stability and low background signal as obtained were encouraging to further use MF70 for Cys-sensing in Cedex Bio HT. Reagent solution was treated with various Cys-concentrations (0.5-7.6 mM) in a feed medium, which is used for monoclonal antibody production. […] Under these conditions, a reliable response was obtained over the period of one week (Table 5), with corresponding detection limit of 3.6 μM Cys, and limit of blank 2.2 μM Cys.

As for `C=CC(=O)Oc1ccc(/C=C/C2=[N+](CCCCS(=O)(=O)[O-])c3ccccc3C2(C)C)cc1` [LZ05, reference compound], in series [1] (25 mM HEPES pH 7.4), the “ε of long-wavelength band of probe” value was found to be 1.3 mM⁻¹ cm⁻¹; the “ε of short-wavelength band(s) of probe” value amounted to 17.3 mM⁻¹ cm⁻¹; the “λmax, long-wavelength band of probe” value stood at 527 nm; the “λmax, short-wavelength band(s) of probe” value stood at 389 nm. Further, in series [2] (25 mM HEPES pH 7.4), the “ε^Cys” value was determined as 31.9 mM⁻¹ cm⁻¹, the “λ^Cys” value worked out at 527 nm and the SNR is 12. Also, in series [3], the “Hydrolysis @4° C.” value was found to be 8.4 ± 0.2% and the “Hydrolysis @37° C.” value stood at 36.9 ± 0.4%. In series [4], the “Solubility (by weight)” value is recorded as 12 mM (≈ 5440 µg/mL) and the “Solubility (by UV-vis)” value amounted to 11.0 ± 1.0 mM (≈ 4990 µg/mL).
Turning to `C=CC(=O)Oc1ccc(/C=C/C2=[N+](C)c3ccccc3C2(C)C)cc1` [LZ07, reference compound], in series [1] (25 mM HEPES pH 7.4), the “ε of long-wavelength band of probe” value turned out to be 0.6 mM⁻¹ cm⁻¹; the “ε of short-wavelength band(s) of probe” value was determined as 16.9 mM⁻¹ cm⁻¹; the “λmax, long-wavelength band of probe” value is listed as 520 nm; the “λmax, short-wavelength band(s) of probe” value amounted to 383 nm. Moreover, in series [2] (25 mM HEPES pH 7.4), the “ε^Cys” value amounted to 31.5 mM⁻¹ cm⁻¹, the “λ^Cys” value is recorded as 520 nm and the SNR is on record as 16. Further, in series [3], the “Hydrolysis @4° C.” value amounted to 7.3 ± 0.1 % and the “Hydrolysis @37° C.” value was 30.1 ± 0.2 %. Also, in series [4], the “Solubility (by weight)” value was 17 mM and the “Solubility (by UV-vis)” value came out at 15.4 ± 1.5 mM.
For the compound `C=CC(=O)Oc1c(C)cc(/C=C/C2=[N+](CCCCS(=O)(=O)[O-])c3ccccc3C2(C)C)cc1C` [MF59], in series [1] (25 mM HEPES pH 7.4), the “ε of long-wavelength band of probe” value is 0.7 mM⁻¹ cm⁻¹; the “ε of short-wavelength band(s) of probe” value was determined as 16.7 mM⁻¹ cm⁻¹; the “λmax, long-wavelength band of probe” value worked out at 550 nm; the “λmax, short-wavelength band(s) of probe” value is recorded as 391 nm. In series [2] (25 mM HEPES pH 7.4), the “ε^Cys” value worked out at 17.9 mM⁻¹ cm⁻¹, the “λ^Cys” value worked out at 550 nm and the SNR was 20. Further, in series [2] (same buffer at pH 8.0), the “ε^Cys” value was 52.9 mM⁻¹ cm⁻¹, the “λ^Cys” value stood at 550 nm and the SNR is 44**. Moreover, in series [3], the “Hydrolysis @4° C.” value was found to be 1.2 ± 0.0% and the “Hydrolysis @37° C.” value stood at 4.7 ± 0.1%. In series [4], the “Solubility (by weight)” value was 2 mM (≈ 963 µg/mL) and the “Solubility (by UV-vis)” value amounted to 5.8 ± 0.2 mM (≈ 2790 µg/mL).
With `C=CC(=O)Oc1ccc(/C=C/C2=[N+](CCCCS(=O)(=O)O)c3ccccc3C2(C)C)cc1S(=O)(=O)[O-]` [MF65], in series [1] (25 mM HEPES pH 7.4), the “ε of long-wavelength band of probe” value came out at 1.2 mM⁻¹ cm⁻¹; the “ε of short-wavelength band(s) of probe” value was 17.7 mM⁻¹ cm⁻¹; the “λmax, long-wavelength band of probe” value stood at 528 nm; the “λmax, short-wavelength band(s) of probe” value came out at 381 nm. In series [2] (25 mM HEPES pH 7.4), the “ε^Cys” value came out at 44.3 mM⁻¹ cm⁻¹, the “λ^Cys” value is listed as 528 nm and the SNR stood at 16. In series [3], the “Hydrolysis @4° C.” value stood at 7.2 ± 0.2% and the “Hydrolysis @37° C.” value is 28.9 ± 1.4%.
As for `C=CC(=O)Oc1c(C)cc(/C=C/C2=[N+](CCCS(=O)(=O)O)c3ccc(S(=O)(=O)[O-])cc3C2(C)C)cc1C` [MF70], in series [1] (25 mM HEPES pH 7.4), the “ε of short-wavelength band(s) of probe” value is 21.9 mM⁻¹ cm⁻¹ and the “λmax, short-wavelength band(s) of probe” value came to 400 nm. Also, in series [1] (same buffer at pH 8.0), the “ε of short-wavelength band of probe” value worked out at 16.6 mM⁻¹ cm⁻¹ and the “λmax, short-wavelength band of probe” value stood at 400 nm. Moreover, in series [2] (25 mM HEPES pH 7.4), the “ε^Cys” value was 23.6 mM⁻¹ cm⁻¹, the “λ^Cys” value was found to be 556 nm and the SNR is reported as 118. In addition, in series [2] (same buffer at pH 8.0), the “ε^Cys” value was 55.8 mM⁻¹ cm⁻¹, the “λ^Cys” value is recorded as 556 nm and the SNR was 140**. In series [3], the “Hydrolysis @4° C.” value is listed as 0.2 ± 0.0% and the “Hydrolysis @37° C.” value is given as 0.8 ± 0.0%. In series [4], the “Solubility (by weight)” value is listed as ≥47 mM and the “Solubility (by UV-vis)” value was ≥41 mM. For the same compound, in series [4] (in comparison to LZ05 and MF59), the “aqueous solubility (in words)” value is listed as “highly water-soluble”. In series [5], the detection limit turned out to be 3.6 μM Cys and the limit of blank was determined as 2.2 μM Cys.
On to `C=CC(=O)Oc1c(C)cc(/C=C/C2=[N+](C)c3ccccc3C2(C)C)cc1C` [MF71], for which, in series [1] (25 mM HEPES pH 7.4), the “ε of long-wavelength band of probe” value is 0.6 mM⁻¹ cm⁻¹; the “ε of short-wavelength band(s) of probe” value was found to be 29.1 mM⁻¹ cm⁻¹; the “λmax, long-wavelength band of probe” value was found to be 546 nm; the “λmax, short-wavelength band(s) of probe” value is reported as 387 nm. For the same compound, in series [1] (same buffer at pH 8.0), the “ε of long-wavelength band of probe” value stood at 0.8 mM⁻¹ cm⁻¹; the “ε of short-wavelength band of probe” value was 25.7 mM⁻¹ cm⁻¹; the “λmax, long-wavelength band of probe” value is given as 546 nm; the “λmax, short-wavelength band of probe” value is 385 nm. Besides, in series [2] (25 mM HEPES pH 7.4), the “ε^Cys” value amounted to 33.7 mM⁻¹ cm⁻¹, the “λ^Cys” value was 547 nm and the SNR is 48. In addition, in series [2] (same buffer at pH 8.0), the “ε^Cys” value is 69.6 mM⁻¹ cm⁻¹, the “λ^Cys” value came out at 547 nm and the SNR is 53**. Moreover, in series [3], the “Hydrolysis @4° C.” value came out at 1.0 ± 0.1% and the “Hydrolysis @37° C.” value is 2.3 ± 0.2%.
Regarding `C=CC(=O)Oc1c(OC)cc(/C=C/C2=[N+](CCCCS(=O)(=O)[O-])c3ccccc3C2(C)C)cc1OC` [MF72], in series [1] (25 mM HEPES pH 7.4), the “ε of short-wavelength band(s) of probe” value was 14.2 mM⁻¹ cm⁻¹ and the “λmax, short-wavelength band(s) of probe” value is on record as 396 nm. In series [2] (25 mM HEPES pH 7.4), the “ε^Cys” value was 31.0 mM⁻¹ cm⁻¹, the “λ^Cys” value came out at 575 nm and the SNR is on record as 103. For the same compound, in series [3], the “Hydrolysis @4° C.” value stood at 0.8 ± 0.1% and the “Hydrolysis @37° C.” value is 2.8 ± 0.1%.
